{
  "source": "the supplement of paper PMC4862054",
  "assay_in_all_cases": "normalised viability (% of control), CellTiter-Blue; higher = more viable cells (about 100 = DMSO control)",
  "details_in_all_cases": "incubation time: 72 h",
  "key": {"[1]": {"tested_on": "MFM-223", "method_in_brief": "(§1)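 Normalised viability is given for a single listed concentration of the series. In 384-well plates, breast cancer cell lines were incubated 72 h with compound, then read with CellTiter-Blue (2 h, 37 °C) at 560/590 nm. Per-plate scaling set vehicle to 100 and a positive kill control to 0, with Z'-factor quality control.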"}, "[2]": {"tested_on": "HCC1143", "method_in_brief": "as §1"}, "[3]": {"tested_on": "HCC1937", "method_in_brief": "as §1"}, "[4]": {"tested_on": "MDA-MB-468", "method_in_brief": "as §1"}, "[5]": {"tested_on": "CAL-120", "method_in_brief": "as §1"}, "[6]": {"tested_on": "SK-BR-3", "method_in_brief": "as §1"}, "[7]": {"tested_on": "BT-474", "method_in_brief": "as §1"}, "[8]": {"tested_on": "HDQ-P1", "method_in_brief": "as §1"}, "[9]": {"tested_on": "CAL-51", "method_in_brief": "as §1"}, "[10]": {"tested_on": "MDA-MB-231", "method_in_brief": "as §1"}},
  "data": [
    {"smiles": "NC(=O)Nc1cc(-c2cccc(F)c2)sc1C(=O)N[C@H]1CCCNC1", "note": "[AZD 7762]", "values": [
      {"measurement": "normalised viability", "setting": "[1]; 1 nM", "result": 101, "unit": "%"},
      {"measurement": "normalised viability", "setting": "[1]; 100 nM", "result": 104, "unit": "%"},
      {"measurement": "normalised viability", "setting": "[1]; 1000 nM", "result": 51.7, "unit": "%"},
      {"measurement": "normalised viability", "setting": "[2]; 1 nM", "result": 120, "unit": "%"},
      {"measurement": "normalised viability", "setting": "[2]; 100 nM", "result": 109, "unit": "%"},
      {"measurement": "normalised viability", "setting": "[2]; 1000 nM", "result": 34.8, "unit": "%"},
      {"measurement": "normalised viability", "setting": "[3]; 1 nM", "result": 104, "unit": "%"},
      {"measurement": "normalised viability", "setting": "[3]; 100 nM", "result": 108, "unit": "%"},
      {"measurement": "normalised viability", "setting": "[3]; 1000 nM", "result": 27.9, "unit": "%"},
      {"measurement": "normalised viability", "setting": "[4]; 1 nM", "result": 107, "unit": "%"},
      {"measurement": "normalised viability", "setting": "[4]; 100 nM", "result": 103, "unit": "%"},
      {"measurement": "normalised viability", "setting": "[4]; 1000 nM", "result": 22.2, "unit": "%"},
      {"measurement": "normalised viability", "setting": "[5]; 1 nM", "result": 118, "unit": "%"},
      {"measurement": "normalised viability", "setting": "[5]; 100 nM", "result": 101, "unit": "%"},
      {"measurement": "normalised viability", "setting": "[5]; 1000 nM", "result": 26.5, "unit": "%"},
      {"measurement": "normalised viability", "setting": "[6]; 1 nM", "result": 101, "unit": "%"},
      {"measurement": "normalised viability", "setting": "[6]; 100 nM", "result": 93.2, "unit": "%"},
      {"measurement": "normalised viability", "setting": "[6]; 1000 nM", "result": 11.5, "unit": "%"},
      {"measurement": "normalised viability", "setting": "[7]; 1 nM", "result": 119, "unit": "%"},
      {"measurement": "normalised viability", "setting": "[7]; 100 nM", "result": 113, "unit": "%"},
      {"measurement": "normalised viability", "setting": "[7]; 1000 nM", "result": 106, "unit": "%"},
      {"measurement": "normalised viability", "setting": "[8]; 0.3 nM", "result": 108, "unit": "%"},
      {"measurement": "normalised viability", "setting": "[8]; 3 nM", "result": 114, "unit": "%"},
      {"measurement": "normalised viability", "setting": "[8]; 10 nM", "result": 115, "unit": "%"},
      {"measurement": "normalised viability", "setting": "[9]; 0.3 nM", "result": 101, "unit": "%"},
      {"measurement": "normalised viability", "setting": "[9]; 3 nM", "result": 93.7, "unit": "%"},
      {"measurement": "normalised viability", "setting": "[9]; 10 nM", "result": 102, "unit": "%"},
      {"measurement": "normalised viability", "setting": "[10]; 1 nM", "result": 112, "unit": "%"},
      {"measurement": "normalised viability", "setting": "[10]; 100 nM", "result": 102, "unit": "%"},
      {"measurement": "normalised viability", "setting": "[10]; 1000 nM", "result": 31.2, "unit": "%"}
    ]}
  ]
}
